Where two headings read alike, the source gives them in different places.
Key:
[1] = NO donor, NO release; cited from earlier work
[2] = tested on: Sprague Dawley rats; test: Rat blood dialysis with NO gas supplied to the dialysate: 4-hour circulation achievement rate; format: in vivo; conditions: for 4-hour circulation achievement rate: rat blood dialysis
Description: An extracorporeal perfusion type polymethylpentene membrane oxygenator was used for gas exchange.
(§1) NO gas of which the concentration was adjusted to 200 ppm, 400 ppm, and 800 ppm was added to the dialysate via a gas exchanger. As a control group, nitrogen gas (N2) was added to the dialysate instead of NO gas.
(§2) FIG. 3 is a schematic diagram showing the structure of a circulation circuit in which the dialyzer is connected to a rat. […] In a case where it was possible to perform the 4-hours circulation, the residual blood in the dialyzer was evaluated.
During the experiment, there was a case where the dialyzer inlet pressure or venous pressure increased, the blood coagulation in the dialyzer or the blood coagulation in the circuit were determined, and the circulation was stopped halfway. Thus, in all groups, the number of 4-hour circulation achievements with respect to the total number of experiments was calculated as the 4-hour circulation achievement rate.
FIG. 4 is a graph showing the 4-hour circulation achievement rate. In FIG. 4, “Control” indicates the results of the control group, and “200 ppm”, “400 ppm”, and “800 ppm” indicate the results of a group in which NO gas of each concentration was supplied to the dialysate.

[3] = tested on: Sprague Dawley rats; test: Methemoglobin (Met-Hb) during rat blood dialysis with NO gas; format: in vivo
Description: as §1

[4] = tested on: Sprague Dawley rats; test: Residual blood LDH activity value and residual blood Hb in the dialyzer after 4 hours of circulation (NO gas); format: in vivo, rat; conditions: for amount of residual blood Hb: compared to control group
Description: as §1, §2
In FIG. 6, “Control” indicates the results of the control group, and “200 ppm”, “400 ppm”, and “800 ppm” indicate the results of a group in which NO gas of each concentration was supplied to the dialysate.

[5] = tested on: Sprague Dawley rats; test: Measurement of NO concentration in blood and dialysate during rat blood dialysis (OxiSelect Nitrite/Nitrate kit); format: in vivo; conditions: 800 ppm NO gas; blood (out) venous side vs blood (in) arterial side of dialysis unit; 1 hour
Description: as §1
For a group in which 800 ppm of NO gas was supplied to the dialysate, the dialysate was supplied to the blood (in) on an arterial side of the dialysis unit, the blood (out) on a venous side of the dialysis unit, the dialysate (in) in the dialysate supply channel for supplying the dialysate to the dialysis unit, and the dialysate (out) in the dialysate discharge channel for discharging the dialysate from the dialysis unit were collected 1 hour after the start of circulation, and the NO concentration was measured using a commercially available kit (“OxiSelect In Vitro Nitric Oxide (Nitrite/Nitrate) Assay Kit (Colorimetric)” made by Cell Biolabs, Inc.). The NO concentration was measured as the sum of the concentrations of NO2^− and NO3^− after the NO was completely hydrolyzed. For this reason, hereinafter, there is a case where the total concentration of […] is referred to as the NO concentration.

[6] = tested on: Sprague Dawley rats
Description: (§3) Male Sprague Dawley rats (body weight: 300 g to 400 g) that were 8 to 12 weeks old were used. The rats were inhaled and anesthetized using isoflurane 1.5% to 3.0% as an anesthetic. Blood was removed from the carotid artery, and blood was returned into the tail vein. The blood flow rate was 0.5 mL/min to 1.0 mL/min, the dialysate flow rate was 3 mL/min, and the blood dialysis was performed for 4 hours by a parallel flow operation. Heparin was administered at 0.7 units/g at the start of dialysis.
(§4) Dialysates in which the sodium nitrite concentration was adjusted to be 40 μM, 80 μM, and 120 μM were used. As a control group, a dialysate containing no sodium nitrite was used.
(§5) During the experiment, arterial pressure, dialyzer inlet pressure, and venous pressure were measured at intervals of 15 minutes. Additionally, methemoglobin (Met-Hb) was measured at the start of the experiment and then at intervals of 60 minutes. Additionally, after the circulation was ended, the dialyzer was washed, and the amount of residual blood hemoglobin (Hb) amount and the activity value of residual blood lactate dehydrogenase (LDH) were measured.
After the end of 4 hours of circulation, the dialyzer was washed with 10 mL of Lactec Injection and then a 0.5% Triton (Registered trademark) solution was circulated for 2 hours. After that, an LDH activity value in a washing solution was measured using a commercially available kit (“Cytotoxicity Measurement KitPLUS (LDH)” made by Roche Diagnostics K.K.) and used as the residual blood LDH activity value.

[7] = tested on: Sprague Dawley rats; remark: listed apart in the source
Description: Blood dialysis of rats was performed by changing the amount of nitrite to be supplied to the dialysate, and the optimal concentration of nitrite was examined.
as §3
As the dialysis unit (dialyzer), a small rat dialyzer having a cellulose triacetate membrane, 140 hollow fibers, an effective length of 146 mm, and a membrane area of 0.014 m^2 were used.
as §4, §5
The experiment was performed with a circulation time of 4 hours. When the dialyzer inlet pressure or venous pressure exceeded 250 mmHg, the circulation was ended.

[8] = tested on: Sprague Dawley rats; conditions: all groups (40, 80, 120 μM sodium nitrite)
Description: as §3, §4, §5

[9] = extrapolated from the 200-800 ppm results
[10] = 80 μM sodium nitrite in dialysate, compared to control group
[11] = 120 μM sodium nitrite in dialysate, compared to control group

Molecule: CC/C(=C\C(CNC(=O)c1cccnc1)=N\O)C(C)[N+](=O)[O-] (stereo not drawn) [NOR4]
- Half-life [1]: 60 min

Molecule: CCNCCN(CC)[N+]([O-])=NO [NOC12]
- Half-life [1]: 100 min

Molecule: NCCN(CCN)/[N+]([O-])=N/O [NOC18]
- Half-life [1]: 1260 min

Molecule: CC(C)N(CCCN)/[N+]([O-])=N/O [NOC5]
- Half-life [1]: 25 min

Molecule: COCC(/C(C)=C/C(=N/O)C(N)=O)[N+](=O)[O-] (stereo not drawn) [NOR1]
- Half-life [1]: 1.8 min

Molecule: nitric oxide [NO gas]
- NO concentration at which the 4-hour circulation achievement rate was 100% [2, 9]: 5.4 µM
- 4-hour circulation achievement rate ([2]; 800 ppm compared with 200 ppm and 400 ppm): higher
- 4-hour circulation achievement rate ([2]; as the concentration of NO gas supplied to the dialysate was higher (200, 400, 800 ppm)): increased
- Met-Hb ([3]; 800 ppm NO gas): ≤ 10%
- adverse event ([3]; NO gas of 200 ppm to 800 ppm supplied to the dialysate): no adverse event occurred
- Met-Hb ([3]; all NO-added groups (200 ppm to 800 ppm)): less than 10%
- amount of residual blood Hb ([4]; 200 ppm NO gas supplied to the dialysate): significantly lower
- residual blood LDH activity value ([4]; 200 ppm NO gas supplied to the dialysate, compared to control group (N2), after 4 hours): significantly lower
- amount of residual blood Hb ([4]; 400 ppm NO gas supplied to the dialysate): significantly lower
- residual blood LDH activity value ([4]; 400 ppm NO gas supplied to the dialysate, compared to control group (N2), after 4 hours): significantly lower
- amount of residual blood Hb ([4]; 800 ppm NO gas supplied to the dialysate): significantly lower
- residual blood LDH activity value ([4]; 800 ppm NO gas supplied to the dialysate, compared to control group (N2), after 4 hours): significantly lower
- residual blood LDH activity value ([4]; as the NO concentration was higher (200 to 800 ppm)): lower value
- NO concentration at which the residual blood LDH activity value was 0 U/L [4, 9]: 6 µM
- amount of increase in NO concentration in blood [5]: about 3 μM

Molecule: O=NO [sodium nitrite]
- residual blood LDH activity value ([6]; 40 μM sodium nitrite in dialysate, compared to control group): significantly lower
- residual blood LDH activity value ([6]; 80 μM and 120 μM as compared to 40 μM): lower value
- amount of residual blood Hb [6, 10]: significantly lower
- residual blood LDH activity value [6, 10]: significantly lower
- amount of residual blood Hb [6, 11]: significantly lower
- residual blood LDH activity value [6, 11]: significantly lower
- blood pressure (arterial pressure) during circulation ([7]; 40 μM sodium nitrite in dialysate): stable for 4 hours
- blood pressure (arterial pressure) during circulation ([7]; 80 μM sodium nitrite in dialysate): stable for 4 hours
- blood pressure (arterial pressure) during circulation ([7]; 120 μM sodium nitrite in dialysate, vs control group): significantly lower
- blood pressure (arterial pressure) during circulation ([7]; 120 μM sodium nitrite in dialysate, vs control group, listed as nitrite ions): slight decrease
- 4 hours circulation ([7]; sodium nitrite groups (40, 80, 120 μM) and control): circulate stably for 4 hours
- Met-Hb concentration [8]: ≤ 2%

Molecule: CNCCCN(C)/[N+]([O-])=N/O [NOC7]
- Half-life [1]: 5 min
